Values quoted from earlier work as cited in patent publication US8268828B2, “Inhibitors of the chemokine receptor CxCR3” (Sanofi, priority 2008, dated 2012).

Tests used:
[1] = system: Collagen Induced Arthritis (CIA); settings: CIA mice

SMILES | reduction of the number of metastases (metastatic breast cancer; mouse model of metastatic breast cancer) [%] | direct effect on proliferation (metastatic breast cancer; tumor cells) | classical picture of inflammation (swollen red joints in limbs) [1] | leukocytic infiltration of joints ([1]; histologic evaluation)
CCOc1ccc(-n2c([C@@H](C)N(Cc3cccnc3)C(=O)Cc3ccc(OC(F)(F)F)cc3)nc3ncccc3c2=O)cc1 [AMG-487] | 60 | no direct effect |  | 
Cc1ccc(-c2ccc3c(c2)C=C(C(=O)Nc2ccc(C[N+](C)(C)C4CCOCC4)cc2)CCC3)cc1.[Cl-] [TAK-779] |  |  | ablated | blocked
